Patent US5093327A, “Inhibition of HIV and other retroviruses by polyoxoanions” (Du Pont Merck Pharmaceutical Company, priority 1991, dated 1992)
In brackets after ≈: the same amount, converted by molar mass.

What was measured:
[1] = test system: Friend leukemia virus (FLV); assay: Splenomegaly assay for quantitation of Friend leukemia virus (FLV) in vivo; design: species or system Female Balb/c mice; conditions: for FLV In Vivo ED50: 50% inhibition of virus-induced splenomegaly, once a day through 7 days post-infection, 30240 min
[2] = test system: HIV-IIIB in H9 cells (reverse transcriptase); assay: HIV Infectivity Assay in H9 Cells (HIV reverse transcriptase production); assay type: cell-based; conditions: day 10
[3] = test system: Friend leukemia virus (FLV); assay: XC plaque assay for quantitation of Friend leukemia virus (FLV) in vitro; assay type: cell-based; conditions: for FLV In Vitro IC50: XC plaque formation
HIV-IIIB in ATH8 cells = assay: HIV Infectivity Assay in ATH8 Cells (50% protection from virus-induced cytopathogenesis); assay type: cell-based; conditions: for HIV Infectivity ATH8 IC50: ATH8 cells, HIV-IIIB, 10 days
FLV [4] = assay: Compound 1/Poly-I:C combination therapy against FLV-induced splenomegaly; assay type: in vivo, mice; conditions: for reduction of splenomegaly: individual dosing
Description: (§1) Female Balb/c mice are infected intraperitoneally with 0.2 ml of FLV suspension at a concentration predetermined to induce spleen weights of 1-2 grams in vehicle-treated control mice at 21 days post-infection. Beginning 24 hours post-infection, mice (10/group) are treated with 10-100 mg/kg of test compound in Sterile Normal Saline for injection (USP) as a carrier for either intraperitoneal, subcutaneous, intravenous or oral route administration. Treatment is given once a day, continuing through 7 days post-infection. AZT is used as a positive control compound. Uninfected, vehicle-treated mice serve as normal spleen controls, while virus-infected, vehicle-treated mice serve as infected spleen controls. At 21 days post-infection the mice are sacrificed and spleens are surgically excised and weighed. Results are expressed as Treated/Control (T/C), where control represents the means spleen weight of FLV-infected, vehicle-treated mice and is arbitrarily set to 1.0. The doses of test compounds required to inhibit virus-induced splenomegaly by 50% (ED50) are shown in Table 1 as compared to AZT the control compound.
FLV-infected mice are treated with compound 1 (1.25-20.00 mg/kg S.C. daily x 7d beginning one day post-infection alone or in combination with Poly-I:C (0.31-5.0 mg/kg ip daily x 7d beginning one day post-infection. Results are shown in Table 4.

[5] = test system: Rauscher leukemia virus (RLV); assay: Splenomegaly assay for quantitation of Rauscher leukemia virus (RLV) in vivo; design: species or system Female BALB/c mice; conditions: 50% inhibition of virus-induced splenomegaly, ip, once a day through 14 days post-infection; 30240 min
Text: Treatment is given once a day, continuing through 14 days post-infection. Ribavirin is used as a positive control compound. Uninfected, vehicle-treated mice serve as normal spleen controls, while infected, vehicle-treated mice serve as infected spleen controls. At 21 days post-infection the mice are sacrificed and spleens are surgically excised and weighed.

FLV [6] = assay: Alternate dosing regimen with combination therapy with AZT against FLV-induced splenomegaly; assay type: in vivo, mice
FLV [7] = assay: Combination therapy with AZT against FLV-induced splenomegaly; assay type: in vivo, mice
Description: as §1
Since AZT is currently approved for the clinical treatment of HIV/AIDS, a combination therapy of AZT and the compounds of the present invention for the treatment of retrovirus and, particularly HIV/AIDS, may be a favorable alternative treatment plan. In order to determine how effective the compounds would be if given together, the following study was done.
FLV-infected mice are treated with compound 1 (0.8-20 mg/kg), alone or in combination with AZT (8-200 mg/kg). Starting one day post-infection compounds are given once daily for seven days. Compound 1 is administered subcutaneously (sc) while AZT is administered intraperitoneally (ip) in order not to physically mix the compounds at the same site.

SIV = assay: Activity against SIV; assay type: cell-based
LPBM-5 = assay: Activity against LPBM-5 in vivo

For β-Cs5 [Compound 4, β-Cs5 [PV2 W10 O40]], the “FLV In Vivo ED50” value [1] was 10 to 20 mg/kg, the “HIV Infectivity RT/H9 IC50” value [2] was under 10 µg/mL and the “FLV In Vitro IC50” value [3] was 7 µg/mL. For the same molecule, the “HIV Infectivity ATH8 IC50” value (HIV-IIIB in ATH8 cells) was 1.6 µg/mL.
With “PolyInosinic-PolyCytidylic Acid [Poly-I:C, reference compound]” the “T/C (spleen weight)” value (FLV [4]; Poly-I:C 0.31 mg/kg ip daily x 7 d, Cpd 1 0) was 1.2, the “T/C (spleen weight)” value (FLV [4]; Poly-I:C 1.25 mg/kg ip daily x 7 d, Cpd 1 0) was 1.1 and the “T/C (spleen weight)” value (FLV [4]; Poly-I:C 5.0 mg/kg ip daily x 7 d, Cpd 1 0) was 0.39. The reduction of splenomegaly (FLV [4]; Poly-I:C 5 mg/kg) was 60%.
In the case of “1,2-K5 [Compound 2, 1,2-K5 [PV2 W10 O40]]”, the “RLV In Vivo ED50” value [5] is reported as 15 to 20 mg/kg, the “FLV In Vivo ED50” value [1] is reported as 10 to 20 mg/kg and the “HIV Infectivity RT/H9 IC50” value [2] is reported as under 10 µg/mL. For the same molecule, the “FLV In Vitro IC50” value [3] was 2.5 µg/mL and the “HIV Infectivity ATH8 IC50” value (HIV-IIIB in ATH8 cells) was 1.0 µg/mL.
In the case of Na12 [Compound 7, Na12 [P2 W15 O62]], the “FLV In Vivo ED50” value [1] is reported as over 20 mg/kg and the “HIV Infectivity ATH8 IC50” value (HIV-IIIB in ATH8 cells) is reported as 2.6 µg/mL.
With K7 [Compound 6, K7 [PTi2 W10 O40]] the “FLV In Vivo ED50” value [1] was “IA (Inactive)”, the “FLV In Vitro IC50” value [3] was 5 µg/mL and the “HIV Infectivity ATH8 IC50” value (HIV-IIIB in ATH8 cells) was 5.6 µg/mL.
In the case of K7 [Compound 3, K7 [BV^IV W11 O40]], the “FLV In Vivo ED50” value [1] is reported as 7.5 mg/kg, the “HIV Infectivity RT/H9 IC50” value [2] is reported as under 10 µg/mL and the “FLV In Vitro IC50” value [3] is reported as 0.1 µg/mL. For the same molecule, the “HIV Infectivity ATH8 IC50” value (HIV-IIIB in ATH8 cells) was 1.5 µg/mL.
With “K9 (NH4)H2 [Compound 8, K9 (NH4)H2 [(OCe)3 (PW9 O34)2]]” the “FLV In Vivo ED50” value [1] was 10 to 20 mg/kg, the “FLV In Vitro IC50” value [3] was 10 µg/mL and the “HIV Infectivity ATH8 IC50” value (HIV-IIIB in ATH8 cells) was 1.0 µg/mL.
Cc1cn([C@H]2C[C@H](N=[N+]=[N-])[C@@H](CO)O2)c(=O)[nH]c1=O [AZT, 3'-Azido-3'-deoxythymidine, reference compound] was tested, and the ED50 ([1]; Mus musculus, 504 h, read-out: FLV In Vivo ED50) was 100 mg/kg, the “T/C (spleen weight)” value (FLV [6]; AZT 12.5 mg/kg ip daily x 7 days, no Cpd 1 (Control)) was 0.93 and the “T/C (spleen weight)” value (FLV [6]; AZT 50 mg/kg ip daily x 7 days, no Cpd 1 (Control)) was 0.71. The “T/C (spleen weight)” value (FLV [6]; AZT 200 mg/kg ip daily x 7 days, no Cpd 1 (Control)) was 0.45, the reduction in splenomegaly (FLV [6]; AZT alone) was 30-50% and the “T/C (spleen weight)” value (FLV [7]; AZT 8 mg/kg ip, Cpd 1 0, days 1-7) was 0.83. For the same molecule, the “T/C (spleen weight)” value (FLV [7]; AZT 40 mg/kg ip, Cpd 1 0, days 1-7) was 0.69, the “T/C (spleen weight)” value (FLV [7]; AZT 200 mg/kg ip, Cpd 1 0, days 1-7) was 0.46 and the “percent reduction in splenomegaly” value (FLV [7]; AZT alone at 200 mg/kg) was “about 50%”. The IC50 ([3]; read-out: FLV In Vitro IC50) was 0.005 µg/mL (≈ 0.0187 µM), the IC50 (HIV-IIIB in ATH8 cells; Human immunodeficiency virus 1, IIIB, ATH-8, 240 h, read-out: HIV Infectivity ATH8 IC50) was 0.005 µg/mL (≈ 0.0187 µM) and the “in vitro potency of AZT relative to the polyoxoanions” value (HIV-IIIB in ATH8 cells; in vitro, data in Table 1) was “more potent in vitro than the polyoxoanions of the present invention”.
For K6 [Compound 5, K6 [SiTiW11 O40]], the “FLV In Vivo ED50” value [1] was 20 mg/kg, the “FLV In Vitro IC50” value [3] was 3 µg/mL and the “HIV Infectivity ATH8 IC50” value (HIV-IIIB in ATH8 cells) was 3.2 µg/mL.
For K6 [Compound 1, K6 [BVW11 O40]], the “RLV In Vivo ED50” value [5] was 10 to 20 mg/kg, the “FLV In Vivo ED50” value [1] was 10 to 20 mg/kg and the “IC50 against SIV” value (SIV) was under 1 µg/mL. For the same molecule, the “T/C (spleen weight)” value (FLV [6]; Cpd 1 80 mg/kg S.C. days 1 & 10, AZT 0) was 0.21, the “T/C (spleen weight)” value (FLV [6]; Cpd 1 80 mg/kg S.C. days 1 & 14, AZT 0) was 0.17 and the “T/C (spleen weight)” value (FLV [6]; Cpd 1 80 mg/kg S.C. days 1 & 17, AZT 0) was 0.5. The “efficacy of two doses administered alone” value (FLV [6]; two doses of compound 1 alone, 10-17 days apart) was “efficacious”, the “T/C (spleen weight)” value (FLV [7]; Cpd 1 0.8 mg/kg sc, AZT 0, days 1-7) was 1.0 and the “T/C (spleen weight)” value (FLV [7]; Cpd 1 4.0 mg/kg sc, AZT 0, days 1-7) was 0.94. For the same molecule, the “T/C (spleen weight)” value (FLV [7]; Cpd 1 20.0 mg/kg sc, AZT 0, days 1-7) was 0.52, the “percent reduction in splenomegaly” value (FLV [7]; compound 1 alone at 20 mg/kg) was “about 50%” and the “HIV Infectivity RT/H9 IC50” value [2] was under 10 µg/mL. For the same molecule, the “ED50 against LPBM-5 in vivo” value (LPBM-5) was 10 to 20 mg/kg, the “FLV In Vitro IC50” value [3] was 1 µg/mL and the “HIV Infectivity ATH8 IC50” value (HIV-IIIB in ATH8 cells) was 1.0 µg/mL. The “T/C (spleen weight)” value (FLV [4]; Cpd 1 1.25 mg/kg S.C. daily x 7 days, Poly-I:C 0) was 0.8, the “T/C (spleen weight)” value (FLV [4]; Cpd 1 5.0 mg/kg S.C. daily x 7 days, Poly-I:C 0) was 0.58 and the “T/C (spleen weight)” value (FLV [4]; Cpd 1 20.0 mg/kg S.C. daily x 7 days, Poly-I:C 0) was 0.33. The reduction of splenomegaly (FLV [4]; compound 1 20 mg/kg) was 60%.
